Key:
[1] = Stability test after dissolution: visual observation of the solution; assay type: physicochemical; details: in the air
Experimental: (§1) 1.0 g of benzo[c]thiophene-1,3-dihydro-2-oxide and 0.25 g of p-toluenesulfonic acid-hydrate (pTSA, molar ratio: 5/1) were dissolved in 11.0 g of each solvent (solid content: 10 mass %) in composition as shown in Table 3 in the air. The solution was visually observed immediately (early period), 24 hours, and one week after the dissolution.
as §1, with “1,3-dihydroisothianaphthene” for “benzo[c]thiophene-1,3-dihydro-2-oxide”, “0.28” for “0.25”, “11.3” for “11.0”, “4” for “3”
A part of the prepared aqueous solution was delivered by drops onto a glass plate, followed by heating and drying at 120° C. for 1 hour. The generated solid was black. The generation of polyisothianaphthene was confirmed from the measurement of the UV spectrum obtained by adding the product to water.
A part of the prepared solution was delivered by drops onto a glass plate, followed by heating and drying at 120° C. for 1 hour. The generated solid was black. The generation of polyisothianaphthene was confirmed from the measurement of the UV spectrum obtained by adding the product to water.

[2] = Solubility test: amount dissolved in 10 g of solvent, visually inspected; assay type: physicochemical
Experimental: Benzo[c]thiophene-1,3-dihydro-2-oxide was dissolved a little at a time in 10 g of a solvent, and the amount of dissolution was visually inspected.
1,3-dihydroisothianaphthene was dissolved a little at a time in 10 g of a solvent.

[3] = 4° C., DMSO, pTSA (molar ratio 5/1), solid content 10 mass %
[4] = 25° C., DMSO, pTSA (molar ratio 5/1), solid content 10 mass %
[5] = 25° C., EtOH, pTSA (molar ratio 5/1), solid content 10 mass %
[6] = 25° C., solvent None, catalyst None

Visual observation After 1 week [1, 3] | Visual observation After 24 hours [1, 3] | Visual observation After 1 week [1, 4] | Visual observation After 24 hours [1, 4] | Visual observation After 1 week [1, 5] | Visual observation After 24 hours [1, 5] | Visual observation After 1 week [1, 6] | Visual observation After 24 hours [1, 6] | SMILES | Dissolution amount ([2]; solvent: Dimethyl formamide) | Dissolution amount ([2]; solvent: Dimethyl sulfoxide) | Dissolution amount ([2]; solvent: Ethanol) | Dissolution amount ([2]; solvent: Ethylene glycol) | Dissolution amount ([2]; solvent: Isopropanol) | Dissolution amount ([2]; solvent: Methanol) | Dissolution amount ([2]; solvent: Water)
Pale yellow | Pale yellow | Deep blue | Pale brown | Deep blue | Brownish red | Pale brown | Pale yellow | c1ccc2c(c1)CSC2 [Comparative Example 1, 1,3-dihydroisothianaphthene] | Soluble | Soluble | Soluble | Insoluble | Soluble | Slightly soluble | Insoluble
– | – | – | – | – | – | – | – | [O-][S+]1Cc2ccccc2C1 [Example 1, benzo[c]thiophene-1,3-dihydro-2-oxide] | Soluble | Soluble | Soluble | Soluble | Soluble | Soluble | Soluble

— patent US11136432B2, “Method for producing polyisothianaphthene-based electroconductive polymer” (SHOWA DENKO K.K., priority 2016, dated 2021)
